Experimental data taken from US20250326814A1, “MODIFIED OXYNTOMODULIN AND METHODS OF USE THEREOF” (OPKO BIOLOGICS LTD., priority 2024, published 2025).
One block for each compound: values may come before it. Non-standard residues stand in square brackets, D forms with d. Residues, ends and D or L forms follow the SMILES beside them. No end group written: not given here. *: point of attachment. X3 = O=C(O)CCCCCCCCCCCCCCCCCCC(=O)N[C@@H](CCC(=O)N[C@@H](CCC(=O)O)C(=O)NCCOCCOCC(=O)NCCOCCOCC(=O)NCCOCCOCC(=O)N[C@@H](CCCCNC(=O)C*)C(=O)NCC(=O)O)C(=O)O; X4 = O=C(O)CCCCCCCCCCCCCCCCC(=O)N[C@@H](CCC(=O)NCCOCCOCC(=O)NCCOCCOCC(=O)N[C@@H](CCCCNC(=O)C*)C(=O)NCC(=O)O)C(=O)O; Aib = CC(C)(N)C(=O)O

Columns and labels:
GLP1 = GLP1 (Homo sapiens, UniProt P43220); assay: CBA potency assay, GLP1 (Tables 10 and 11); assay type: cell-based
Description: (§3) The impact of the longevity-enabling molecule (PEG Vs. FA-peptide/binder complex) on the peptide potency was studied.

[1] = molecular target: T1, glucagon-like peptide-1 (GLP1) receptor (Homo sapiens, UniProt P43220); assay: GLP-1 activity EC50 of OXM analogs and GLP-1 therapeutics (Example 4, Table 9); assay type: cell-based; settings: GLP-1 activity; Table 9; read-out: EC50
T1 construct: expressed in transfected cells; host or cells: CHO-K1
Description: The potencies of the modified OXM analogs newly disclosed in the present application, the OXM Analog alone, and the PEGylated OXM analog were examined and compared by measuring the EC50 of both receptors, glucagon-like peptide-1 (GLP1) and glucagon (GCGR).

GCGR = GCGR (Homo sapiens, UniProt P47871); assay: CBA potency assay, GCGR (Tables 10 and 11); assay type: cell-based
Description: as §3

DIO mice [2] = assay: Body composition (fat and lean tissue mass) in DIO mice; assay type: in vivo
Method: The body composition of mice was assessed by an EchoMRI 3 in 1 Body composition analyzer (EchoMRI, US). Non-anaesthetized animals were placed in a plastic tube inside the MRI scanner for approximately 80 seconds. The body composition was reported as fat mass and fat free mass (lean mass).
(§1) Sixty C57BL/6JRj male mice were fed a high fat diet (60% HFD, D12492—Ssniff) for 20 weeks before treatment start. […] Body weight and food intake (24 h) were measured daily. In week 3, an OGTT study was performed. Baseline and preterminal fasting blood glucose and plasma insulin were assessed. Preterminal plasma TC and TG were assessed. Terminal endpoints included liver and heart weight, liver TC, TG, […] and lipid content (HE staining).

DIO mice [3] = assay: Body weight and food intake in DIO mice, 4 weeks daily treatment; assay type: in vivo; settings: for food consumption / cumulative food intake (FIG. 17B, 18B): OPK-88604 vs semaglutide; for cumulative food intake on day 28, P compared to Vehicle (FIG. 15): 15 nmol/kg q.d. SC, 4 weeks
Method: The animals were individually weighed and analyzed for lipid and cholesterol levels prior to treatment and following completion of the study. The levels of fasting glucose and insulin levels were analyzed, and oral glucose tolerance test was performed and compared between groups The levels of plasma triglycerides and cholesterol were evaluated at the end of study and compared to base levels prior to treatment. Levels of total cholesterol, triglycerides and glycogen were also examined at the end of study. Histology of liver was used to analyze for lipid droplets in the liver. All tests were conducted using routine methods known in the art.
The mice used in the studies were the gubra diet-induced obese (DIO) mouse model. This mouse model is fed a high fat diet that results in rapid weight gain. The DIO mice were based on male C57BI/6J mice and ready for experiment after 18 weeks on a 60% high fat diet.
To ensure accurate monitoring of weight changes over the course of the study, the animals were weighed daily with precision, prior to dosing at 7:00 AM. Body weight data was recorded in two formats: (1) Absolute measurements: The direct weight of the animal each day, and (2) Relative measurements: The weight expressed as a percentage relative to the body weight recorded on Day 1.
as §1

DIO mice [4] = assay: Liver H&E staining for lipid droplets / liver lipid in DIO mice; assay type: in vivo; settings: 15 nmol/kg QD SC
Method: In summary, glass slides with paraffin embedded sections were deparaffinated in xylene and rehydrated in series of graded ethanol.
Slides treated with histochemical and immunohistochemical stains were scanned using a 20× objective in a ScanScope AT slide scanner (Aperio).
Hematoxylin & Eosin (H&E) staining: Sections of FFPE tissue were incubated in Mayer's Hematoxylin (Dako), washed in tap water, stained in Eosin Y solution (Sigma-Aldrich), dehydrated in graded ethanol and cover slipped.
as §1

DIO mice [5] = assay: Fasting blood glucose and plasma insulin in DIO mice; assay type: in vivo; settings: 15 nmol/kg q.d.
Method: (§2) For in vivo blood samples, tail-vein, tongue or cheek blood was collected in a Microvette tube of appropriate dimensions with anticoagulant and mixed by inversion 5 times. Blood was placed at 4° C. until centrifuged at 3000 g for 10 minutes. The plasma supernatants were transferred to new tubes and immediately frozen on dry ice. The samples were stored at −70° C.
Insulin: Blood samples were collected in heparinized tubes and plasma was separated and stored at −70° C. until analysis. Insulin was measured using the commercial MSD platform (Meso Scale Diagnostics).
as §1

DIO mice [6] = assay: Plasma cholesterol and triglyceride in DIO mice; assay type: in vivo; settings: 15 nmol/kg q.d.
Method: as §2, with “termination” for “in vivo”, “during anesthesia with isoflurane, the abdominal cavity was opened, and cardiac” for “tail-vein, tongue or cheek”, “drawn with” for “collected in”, “syringe into a Microvette/Vacuette” for “Microvette tube”
Alanine transaminase (ALT), Aspartate transaminase (AST), Triglycerides (TG) and Total Cholesterol (TC): Blood samples were collected in heparinized tubes and plasma was separated and stored at −70° C. until analysis. Samples were measured using commercial kits (Roche Diagnostics), on the cobas c 501 autoanalyzer.
as §1

Sequence of GCGR (P47871 26-477): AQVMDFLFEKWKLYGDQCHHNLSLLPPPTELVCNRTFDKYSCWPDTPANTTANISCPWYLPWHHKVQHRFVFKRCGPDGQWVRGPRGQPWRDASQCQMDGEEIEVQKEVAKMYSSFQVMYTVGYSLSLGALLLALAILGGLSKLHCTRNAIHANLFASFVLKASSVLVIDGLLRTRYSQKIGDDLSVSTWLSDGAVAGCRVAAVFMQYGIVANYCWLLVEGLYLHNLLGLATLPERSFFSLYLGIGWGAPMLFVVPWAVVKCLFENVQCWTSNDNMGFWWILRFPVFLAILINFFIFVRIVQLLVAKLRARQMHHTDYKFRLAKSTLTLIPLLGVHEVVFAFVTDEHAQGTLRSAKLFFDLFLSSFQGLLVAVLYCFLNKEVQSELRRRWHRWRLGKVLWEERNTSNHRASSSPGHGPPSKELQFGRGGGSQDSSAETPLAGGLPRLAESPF
T1 sequence (P43220 24-463): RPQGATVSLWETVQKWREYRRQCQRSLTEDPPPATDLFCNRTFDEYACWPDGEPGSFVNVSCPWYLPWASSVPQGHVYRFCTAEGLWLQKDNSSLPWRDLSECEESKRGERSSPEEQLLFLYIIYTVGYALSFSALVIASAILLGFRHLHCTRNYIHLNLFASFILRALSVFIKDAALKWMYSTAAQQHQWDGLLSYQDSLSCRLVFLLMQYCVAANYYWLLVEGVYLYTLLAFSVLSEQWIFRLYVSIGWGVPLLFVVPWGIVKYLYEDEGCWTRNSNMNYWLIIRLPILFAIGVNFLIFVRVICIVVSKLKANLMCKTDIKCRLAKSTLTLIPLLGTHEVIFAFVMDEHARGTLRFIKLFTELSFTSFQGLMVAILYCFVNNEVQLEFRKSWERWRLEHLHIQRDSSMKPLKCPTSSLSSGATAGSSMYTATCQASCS
Sequence of GLP1 (P43220 24-463): as above

% EC50 compare to KPI (GLP1) (GLP1; Table 10): 45% | Activity fold reduction compared to OPK-88003 KPI (GLP1) (GLP1; Table 10): 2.2 fold | EC50 (GLP1; Table 10): 0.282 nM | EC50 [1]: 0.13 nM | % EC50 compare to KPI (GCGR) (GCGR; Table 10): 72% | Activity fold reduction compared to OPK-88003 KPI (GCGR) (GCGR; Table 10): 1.4 fold | EC50 (GCGR; Table 10): 0.83 nM | EC50 ratio (GCGR\GLP-1R) (GCGR; Table 10): 2.9
Compound: CC[C@H](C)[C@H](NC(=O)[C@H](CC(N)=O)NC(=O)[C@H](CC(N)=O)NC(=O)[C@H](CCCNC(=N)N)NC(=O)[C@H](CC(N)=O)NC(=O)[C@H](CCCNC(=N)N)NC(=O)CNC(=O)C(C)(C)NC(=O)[C@H](CC(N)=O)NC(=O)[C@H](CC(C)C)NC(=O)[C@H](CC(C)C)NC(=O)[C@H](Cc1c[nH]c2ccccc12)NC(=O)[C@H](CCC(N)=O)NC(=O)[C@@H](NC(=O)[C@H](Cc1ccccc1)NC(=O)[C@H](CCC(=O)O)NC(=O)[C@H](CCC(N)=O)NC(=O)[C@H](C)NC(=O)[C@H](CCCCN)NC(=O)[C@H](CCCCN)NC(=O)[C@H](CO)NC(=O)[C@H](CC(=O)O)NC(=O)[C@H](CC(C)C)NC(=O)[C@H](Cc1ccc(O)cc1)NC(=O)[C@H](CCCCN)NC(=O)[C@H](CO)NC(=O)[C@H](Cc1ccc(O)cc1)NC(=O)[C@H](CC(=O)O)NC(=O)[C@H](CO)NC(=O)[C@@H](NC(=O)[C@H](Cc1ccccc1)NC(=O)[C@@H](NC(=O)CNC(=O)[C@H](CCC(N)=O)NC(=O)C(C)(C)NC(=O)[C@@H](N)Cc1c[nH]cn1)[C@@H](C)O)[C@@H](C)O)C(C)C)C(=O)N[C@@H](C)C(=O)N[C@@H](CS)C(N)=O [MOD-604 KPI] (HELM PEPTIDE1{H.[Aib].Q.G.T.F.T.S.D.Y.S.K.Y.L.D.S.K.K.A.Q.E.F.V.Q.W.L.L.N.[Aib].G.R.N.R.N.N.I.A.C.[am]}$$$$V2.0)

EC50 [1]: 0.1 nM
Compound: CC[C@H](C)[C@H](NC(=O)[C@H](CC(N)=O)NC(=O)[C@H](CC(N)=O)NC(=O)[C@H](CCCNC(=N)N)NC(=O)[C@H](CC(N)=O)NC(=O)[C@H](CCCNC(=N)N)NC(=O)CNC(=O)C(C)(C)NC(=O)[C@H](CC(N)=O)NC(=O)[C@H](CC(C)C)NC(=O)[C@H](CC(C)C)NC(=O)[C@H](Cc1c[nH]c2ccccc12)NC(=O)[C@H](CCC(N)=O)NC(=O)[C@@H](NC(=O)[C@H](Cc1ccccc1)NC(=O)[C@H](CCC(=O)O)NC(=O)[C@H](CCC(N)=O)NC(=O)[C@H](C)NC(=O)[C@H](CCCCN)NC(=O)[C@H](CCCCN)NC(=O)[C@H](CO)NC(=O)[C@H](CC(=O)O)NC(=O)[C@H](CC(C)C)NC(=O)[C@H](Cc1ccc(O)cc1)NC(=O)[C@H](CCCCN)NC(=O)[C@H](CO)NC(=O)[C@H](Cc1ccc(O)cc1)NC(=O)[C@H](CC(=O)O)NC(=O)[C@H](CO)NC(=O)[C@@H](NC(=O)[C@H](Cc1ccccc1)NC(=O)[C@@H](NC(=O)CNC(=O)[C@H](CCC(N)=O)NC(=O)C(C)(C)NC(=O)[C@@H](N)Cc1c[nH]cn1)[C@@H](C)O)[C@@H](C)O)C(C)C)C(=O)N[C@@H](C)C(=O)N[C@@H](CSCC(=O)NCCCC[C@H](NC(=O)COCCOCCNC(=O)COCCOCCNC(=O)CC[C@H](NC(=O)CCCCCCCCCCCCCCCCC(=O)O)C(=O)O)C(=O)NCC(=O)O)C(N)=O [Variant 2] (H-H[Aib]QGTFTSDYSKYLDSKKAQEFVQWLLN[Aib]GRNRNNIAC(X4)-NH2)

EC50 [1]: 0.15 nM
Compound: CC[C@H](C)[C@H](NC(=O)[C@H](CC(N)=O)NC(=O)[C@H](CC(N)=O)NC(=O)[C@H](CCCNC(=N)N)NC(=O)[C@H](CC(N)=O)NC(=O)[C@H](CCCNC(=N)N)NC(=O)CNC(=O)C(C)(C)NC(=O)[C@H](CC(N)=O)NC(=O)[C@H](CC(C)C)NC(=O)[C@H](CC(C)C)NC(=O)[C@H](Cc1c[nH]c2ccccc12)NC(=O)[C@H](CCC(N)=O)NC(=O)[C@@H](NC(=O)[C@H](Cc1ccccc1)NC(=O)[C@H](CCC(=O)O)NC(=O)[C@H](CCC(N)=O)NC(=O)[C@H](C)NC(=O)[C@H](CCCCN)NC(=O)[C@H](CCCCN)NC(=O)[C@H](CO)NC(=O)[C@H](CC(=O)O)NC(=O)[C@H](CC(C)C)NC(=O)[C@H](Cc1ccc(O)cc1)NC(=O)[C@H](CCCCN)NC(=O)[C@H](CO)NC(=O)[C@H](Cc1ccc(O)cc1)NC(=O)[C@H](CC(=O)O)NC(=O)[C@H](CO)NC(=O)[C@@H](NC(=O)[C@H](Cc1ccccc1)NC(=O)[C@@H](NC(=O)CNC(=O)[C@H](CCC(N)=O)NC(=O)C(C)(C)NC(=O)[C@@H](N)Cc1c[nH]cn1)[C@@H](C)O)[C@@H](C)O)C(C)C)C(=O)N[C@@H](C)C(=O)N[C@@H](CSCC(=O)NCCCC[C@H](NC(=O)COCCOCCNC(=O)COCCOCCNC(=O)COCCOCCNC(=O)[C@H](CCC(=O)O)NC(=O)CC[C@H](NC(=O)CCCCCCCCCCCCCCCCCCC(=O)O)C(=O)O)C(=O)NCC(=O)O)C(N)=O [Variant 3] (H-H[Aib]QGTFTSDYSKYLDSKKAQEFVQWLLN[Aib]GRNRNNIAC(X3)-NH2)

Compound: OPK-88003 FA-conjugate: either the modified OXM of Formula XXII or the modified OXM of Formula XXIII (H[Aib]QGTFTSDYSKYLDSKKAQEFVQWLLN[Aib]GRNRNNIACC; not fully specified (C-terminus); also: fatty acid binder on Cys38 or Cys39, isomer not given here)
Activity fold reduction compared to OPK-88003 KPI (GLP1) (GLP1; Table 11, without HSA): non | EC50 ratio (GCGR\GLP-1R) (GCGR; Table 10): 7.6 | EC50 ratio (GCGR\GLP-1R) (GCGR; Table 11, + HSA): 23.3 | EC50 ratio (GCGR\GLP-1R) (GCGR; Table 11, without HSA): 15.2

Compound: Semaglutide
change in lean tissue mass from baseline, P compared to Vehicle (FIG. 23B) (DIO mice [2]; 15 nmol/kg QD SC): < 0.05 | relative fat tissue mass / relative lean tissue mass at week 4, P compared to Vehicle (FIG. 22A, 22B) (DIO mice [2]; 15 nmol/kg QD SC): < 0.05 | relative lean body mass and fat mass change from baseline on day 28 (FIG. 24A, 24B) (DIO mice [2]; 15 nmol/kg daily, 28 days, OPK-88604 vs semaglutide): statistically similar | absolute body weight at day 28, P compared to Vehicle (FIG. 16A) (DIO mice [3]; 15 nmol/kg QD SC): < 0.01 | food consumption / cumulative food intake (FIG. 17B, 18B) (DIO mice [3]; 15 nmol/kg daily, 28 days): reduced food consumption significantly more than OPK-88604 treatment | weight loss from baseline (FIG. 17A, 18A) (DIO mice [3]; 15 nmol/kg daily, 28 days, OPK-88604 vs semaglutide vs placebo): similar | food consumption / cumulative food intake (FIG. 17B, 18B) (DIO mice [3]; 15 nmol/kg daily, 28 days, listed as semaglutide): significantly decreased | cumulative food intake on day 28, P compared to Vehicle (FIG. 15) (DIO mice [3]): < 0.05 | relative liver lipid / total liver lipid, P compared to Vehicle (FIG. 31A, 31B) (DIO mice [4]): < 0.05

Compound: Tirzepatide [reference compound]
absolute fat tissue mass at week 4, P compared to Vehicle (FIG. 21A) (DIO mice [2]; 15 nmol/kg QD SC): < 0.001 | relative fat tissue mass / relative lean tissue mass at week 4, P compared to Vehicle (FIG. 22A, 22B) (DIO mice [2]; 15 nmol/kg QD SC): < 0.001 | glucose tolerance plasma insulin at week 1, P compared to Vehicle (FIG. 36A) (DIO mice [5]): < 0.01 | glucose tolerance plasma insulin at week 4, P compared to Vehicle (FIG. 36B) (DIO mice [5]): < 0.01 | plasma triglyceride at termination, P compared to Vehicle (FIG. 32B) (DIO mice [6]): < 0.01 | cumulative food intake on day 28, P compared to Vehicle (FIG. 15) (DIO mice [3]): < 0.001 | relative liver lipid / total liver lipid, P compared to Vehicle (FIG. 31A, 31B) (DIO mice [4]): < 0.01
